{"source": "patent US20230124862A1", "about": "“BISMUTH THIOL COMPOUNDS AND COMPOSITIONS AND METHODS OF TREATING MICROBIAL CO-INFECTIONS” (Microbion Corporation, priority 2020, published 2023)", "key": {"[1]": {"test_system": "Pseudomonas aeruginosa strain PA01", "experiment": "Bacterial killing curves with and without CF patient sputum", "assay_type": "cell-based", "settings": "for bactericidal activity: 0.1 μg/mL"}, "[2]": {"test_system": "P. aeruginosa and A. baumannii", "experiment": "Broth microdilution MIC (Example 11)", "assay_type": "cell-based, Pseudomonas aeruginosa, Acinetobacter baumannii", "settings": "read-out: MIC values"}, "Enterococcus spp.": {"test_system": "Enterococcus spp.", "experiment": "Broth microdilution MIC (Example 11)", "assay_type": "cell-based, E. faecalis, E. faecium", "settings": "Enterococcus, VRE, enterococci incl. VRE; read-out: MIC values"}, "[3]": {"test_system": "Anaerobes (Bacteroides fragilis, Clostridium difficile)", "experiment": "Agar dilution MIC (Example 11)", "assay_type": "cell-based", "method": "The susceptibility of anaerobic bacteria was determined by agar dilution using Brucella Agar (BD/BBL; Lot No. 5237692) supplemented with 5 μg/mL hemin (Sigma, St. Louis, Mo.; Lot No. 108K1088), 1 μg/mL Vitamin K1 and 5% (v/v) laked sheep blood (Cleveland Scientific, Bath, Ohio; Lot No. 322799).\nAgar Dilution MIC Testing (Anaerobic Bacteria and Gonococci): MIC values for anaerobic bacteria were determined using a reference agar dilution method as described by CLSI (6). Organisms were grown at 35° C. in the Bactron II Anaerobic Chamber (Shel Lab, Cornelius, Oreg.) for approximately 48 hr prior to the assay. Drug dilutions and drug-supplemented agar plates were prepared manually per CLSI (6). The plates were allowed to stand at room temperature for 1 hr to allow the agar surface to dry and pre-reduced for approximately 1 hr in the anaerobe chamber prior to inoculation. Each isolate was suspended to the equivalent of a 0.5 McFarland standard in Brucella broth using a turbidity meter (Dade Behring MicroScan, West Sacramento, Calif.). Each bacterial cell suspension was then diluted 1:10 in Brucella broth and transferred to wells in a stainless steel replicator block which was used to inoculate the test plates. The prongs on the replicator deliver approximately 1-2 μl of inoculum to an agar surface. The resulting inoculum spots contained approximately 1×10^5 CFU/spot. After the inoculum dried, the inoculated drug-supplemented agar plates and no drug growth control plates were incubated at 35° C. for 42-48 hr in the anaerobe chamber. The MIC was read per CLSI guidelines (6)."}, "S. aureus ATCC 29213": {"test_system": "S. aureus ATCC 29213", "settings": "cited from earlier work; for Expected MIC: goal (acceptable range): control strain ATCC 29213"}, "Acinetobacter baumannii": {"test_system": "Acinetobacter baumannii", "experiment": "Broth microdilution MIC (Example 12)", "assay_type": "cell-based"}, "P. aeruginosa [4]": {"test_system": "P. aeruginosa", "settings": "P. aeruginosa isolate 103; CLSI QC range in parenthesis; cited from earlier work"}, "P. aeruginosa [5]": {"test_system": "P. aeruginosa", "settings": "P. aeruginosa isolate 103; CLSI QC range in parenthesis; cited from earlier work", "remark": "listed apart in the source"}, "Escherichia coli": {"test_system": "Escherichia coli", "settings": "CLSI established QC range, cited from earlier work"}, "Klebsiella pneumoniae": {"test_system": "Klebsiella pneumoniae", "settings": "K. pneumoniae ATCC BAA-1705; CLSI established QC range; cited from earlier work"}, "Pseudomonas aeruginosa": {"test_system": "Pseudomonas aeruginosa", "settings": "P. aeruginosa ATCC 27853; CLSI established QC range; cited from earlier work"}, "in vivo [6]": {"experiment": "in vivo", "settings": "rat, rats, lung-deposited dose, read-out: acute no observed adverse effect level (NOAEL)", "method": "Based on rat tox and PK data to date, an acute no observed adverse effect level (NOAEL) in rats is approximately 100 μg/kg lung-deposited dose. The NOAEL was established through clinical observation during and after treatment, gross necropsy, lung lavage analysis, clinical chemistry, and hematology results. […] Furthermore, lung surface fluid concentrations are approximately 30-fold higher than the corresponding total lung tissue concentrations for BisEDT which appears to persist primarily on the lumen."}, "in vivo [7]": {"experiment": "in vivo", "design": "species or system beagle dogs", "settings": "dog; for half-life: two-dose inhalation", "method": "Once adequately conditioned to the restraint device and face-masks, the animals are individually exposed to the test article aerosols. Animals receive a single face-mask inhalation exposure in a ramp study design to test article aerosols for up to 60 min. Animal observations during and post exposure determine the tolerance of inhaled BisEDT aerosols.\nBlood Collections and Bioanalytical Analysis: Blood are collected for pharmacokinetic (PK) analysis prior to exposure, then at 4 hr (±5 min) post exposure, and again on Day 1, Day 2, Day 7 (pre- and 4 hr (±5 min)-post exposure), Day 8, Day 9, Day 10, Day 11, Day 12, Day 13, and Day 14. A total of 0.25 mL is collected at each timepoint. No PK blood is collected from the vehicle control (Group 1) animals; only animals exposed to BisEDT have blood collected for PK analysis. Collected samples are flash frozen without processing for shipment to Medpace for bioanalytical analysis. Additional blood is collected from all animals in all groups for hematology (1 mL) and clinical chemistry (1 mL) at baseline, Day 7 (pre-exposure), and again at euthanasia. Blood (2-2 mL) is collected from all animals at necropsy for coagulation analysis (d-Dimer, fibrinogen, PT, and PTT).\nBlood for pharmacokinetic analysis (0.25 mL) is collected into tubes containing K3EDTA as an anticoagulant.\nThe left lobe of the lung is used for histopathology and will be fixed in 10% NBF. […] Liver, spleen, kidney, brain, heart, and respiratory tract are collected and fixed for potential, future analysis.\nA two-dose inhalation PK study in dogs was performed covering four doses from 50 μg/kg to 450 μg/kg lung deposited dose. […] The systemic half-life is approximately 4 days, and the lung tissue half-life is approximately 7 days."}, "[8]": {"settings": "Animals 4001 and 4004, Day 14 (7 days after last dose)"}}, "note": "Like-named read-outs stand apart in the source and are kept apart here."}
{"compound": "CC(S)C(C)S.[Bi]", "note": "(stereo not shown) [BisBDT, bismuth-2,3-butanedithiol]", "values": [{"measurement": "bactericidal activity", "setting": "[1]", "result": "not bactericidal"}, {"measurement": "more surviving in cultures with sputum", "setting": "[1]; 4 μg/mL, 3-6 hours", "result": "0.5-0.8 log CFU/mL"}, {"measurement": "killing without sputum", "setting": "[1]; 4 μg/mL, over the 6 hour assay", "result": "about 1 log"}, {"measurement": "time to sterilization below the limit of detection", "setting": "[1]; 20 μg/mL, with and without sputum", "result": "≤ 5", "unit": "h"}, {"measurement": "MIC", "setting": "[2]", "result": "0.5 to 2", "unit": "µg/mL"}, {"measurement": "MIC", "setting": "Enterococcus spp.", "result": "0.25 to 1", "unit": "µg/mL"}, {"measurement": "MIC", "setting": "[3]; Bacteroides fragilis, ATCC25285, B. fragilis MMX 123 (ATCC 25285), QC, read-out: MIC", "result": 1, "unit": "µg/mL"}, {"measurement": "MIC", "setting": "[3]; Bacteroides fragilis, agar dilution, read-out: MIC values", "result": "1 to 4", "unit": "µg/mL"}, {"measurement": "MIC", "setting": "[3]; C. difficile MMX 5680 (NCTC 13336), ribotype 027, CC^1 MET^R, read-out: MIC", "result": 2, "unit": "µg/mL"}, {"measurement": "MIC", "setting": "[3]; C. difficile MMX 8272, ribotype 255, CC^1, read-out: MIC", "result": 2, "unit": "µg/mL"}, {"measurement": "MIC", "setting": "[3]; C. difficile MMX 8279, ribotype 005, CC^R, read-out: MIC", "result": 2, "unit": "µg/mL"}, {"measurement": "MIC", "setting": "[3]; C. difficile MMX 8281, ribotype 010, CC^R, read-out: MIC", "result": 2, "unit": "µg/mL"}, {"measurement": "Expected MIC: goal (acceptable range)", "setting": "S. aureus ATCC 29213", "result": "0.25 (0.12-0.5) mcg/mL"}]}
{"compound": "C[C@@H](O)[C@H]1C(=O)N2C(C(=O)O)=C(S[C@@H]3CN[C@H](C(=O)N(C)C)C3)[C@H](C)[C@H]12", "note": "[MEM]", "values": [{"measurement": "MIC", "setting": "Acinetobacter baumannii; A. baumannii CDC 273, ESBL/OXA", "result": ">8", "unit": "µg/mL"}, {"measurement": "MIC", "setting": "Acinetobacter baumannii; A. baumannii CDC 274, ESBL/OXA", "result": ">8", "unit": "µg/mL"}, {"measurement": "MIC", "setting": "Acinetobacter baumannii; A. baumannii CDC 275, ESBL/OXA", "result": ">8", "unit": "µg/mL"}, {"measurement": "MIC", "setting": "Acinetobacter baumannii; A. baumannii CDC 277, ESBL/OXA", "result": ">8", "unit": "µg/mL"}, {"measurement": "MIC", "setting": "Acinetobacter baumannii; A. baumannii CDC 284, ESBL/OXA", "result": ">8", "unit": "µg/mL"}, {"measurement": "MIC", "setting": "Acinetobacter baumannii; A. baumannii CDC 307, OXA", "result": 8, "unit": "µg/mL"}, {"measurement": "MIC", "setting": "Acinetobacter baumannii; A. baumannii CDC 308, ESBL/OXA", "result": 8, "unit": "µg/mL"}, {"measurement": "MIC", "setting": "Acinetobacter baumannii; A. baumannii CDC 311, OXA", "result": ">8", "unit": "µg/mL"}, {"measurement": "MIC", "setting": "Acinetobacter baumannii; A. baumannii CDC 312, OXA", "result": 4, "unit": "µg/mL"}, {"measurement": "MIC", "setting": "Acinetobacter baumannii; A. baumannii CDC 313, ESBL/OXA", "result": ">8", "unit": "µg/mL"}, {"measurement": "MIC", "setting": "Acinetobacter baumannii; A. baumannii NCTC 13304, OXA", "result": ">8", "unit": "µg/mL"}, {"measurement": "CLSI QC range of MIC", "setting": "P. aeruginosa [4]", "result": "(0.12-1) μg/mL"}, {"measurement": "CLSI QC range of MIC", "setting": "P. aeruginosa [5]", "result": "(0.12-1) μg/mL"}, {"measurement": "QC range of MIC", "setting": "Escherichia coli; E. coli ATCC 25922", "result": "(0.008-0.06) μg/mL"}, {"measurement": "QC range of MIC", "setting": "Escherichia coli; E. coli ATCC 35218", "result": "(0.008-0.06) μg/mL"}, {"measurement": "QC range of MIC", "setting": "Klebsiella pneumoniae", "result": "(8-64) μg/mL"}, {"measurement": "QC range of MIC", "setting": "Pseudomonas aeruginosa", "result": "(0.12-1) μg/mL"}]}
{"compound": "C1C[S][Bi]([S]CC[S][Bi]2[S]CC[S]2)[S]1", "note": "[BisEDT, Bismuth-1,2-ethanedithiol]", "values": [{"measurement": "bactericidal activity", "setting": "[1]", "result": "not bactericidal"}, {"measurement": "NOAEL", "setting": "in vivo [6]", "result": "~0.1", "unit": "mg/kg"}, {"measurement": "half-life", "setting": "in vivo [7]; beagle, in vivo, inhaled or intranasal, read-out: lung tissue half-life (converted)", "result": "~168", "unit": "h"}, {"measurement": "half-life", "setting": "in vivo [7]; beagle, in vivo, inhaled or intranasal, read-out: systemic half-life (converted)", "result": "~96", "unit": "h"}, {"measurement": "Tmax", "setting": "in vivo [7]; beagle, in vivo, inhaled or intranasal, whole blood, after both doses", "result": "~24", "unit": "h"}, {"measurement": "average blood level", "setting": "in vivo [7]; [8]", "result": "less than 20 ng/mL"}, {"measurement": "lung tissue level", "setting": "in vivo [7]; [8]", "result": "over 7,000 ng/g"}, {"measurement": "QC Range 24 hr", "setting": "S. aureus ATCC 29213; S. aureus ATCC 29213, established QC range, 24 hr", "result": "0.12-1"}, {"measurement": "Expected MIC: goal (acceptable range)", "setting": "S. aureus ATCC 29213", "result": "0.25 to 0.5", "unit": "µg/mL"}, {"measurement": "CLSI QC range of MIC", "setting": "P. aeruginosa [4]", "result": "(0.5-4)^2 μg/mL"}, {"measurement": "CLSI QC range of MIC", "setting": "P. aeruginosa [5]", "result": "(0.5-4) μg/mL"}, {"measurement": "QC range of MIC", "setting": "Escherichia coli; E. coli ATCC 25922", "result": "(0.5-4)^1 μg/mL"}, {"measurement": "QC range of MIC", "setting": "Pseudomonas aeruginosa", "result": "(0.5-4) μg/mL"}]}
